Data taken from patent US12037333B2, “Pyridopyrazine and pyridotriazine inhibitors of influenza virus replication” (priority 2018, dated 2024).

Test system: Influenza type A (strain A/PR/8/34, ATCC VR-95)
Experiment: Influenza antiviral assay: inhibition of virus-induced cytopathic effects (CPE) in MDCK cells, XTT dye reduction
Format: cell-based
Details: strain A/PR/8/34, MDCK cells, CPE inhibition at 4 days
[1] = Influenza A virus, H1N1 / PR/8, MDCK, 96 h

## O=C1c2c(O)c(=O)ccn2N(C23c4ccccc4CC2Cc2ccccc23)CN1CC1CC1 (stereo not shown) [Compound A2, 3-Cyclopropylmethyl-1-(9a,10-dihydro-9H-indeno[1,2-a]inden-4b-yl)-5-hydroxy-2,3-dihydro-1H-pyrido[2,1-f][1,2,4]triazine-4,6-dione]
[1]
  EC50: 125 to 250 nM

## O=C1c2c(O)c(=O)ccn2N(C23c4ccccc4CC2Cc2c(F)cccc23)CN1CC1CCOCC1 (stereo not shown) [Compound A75]
[1]
  EC50: < 125 nM

## O=C1c2c(O)c(=O)ccn2N(C23c4cccc(F)c4CC2Cc2c(F)cccc23)CN1CC(F)F (stereo not shown) [Compound A71]
[1]
  EC50: < 125 nM

## O=C1c2c(O)c(=O)ccn2N(C23c4cccc(F)c4CC2Cc2c(F)cccc23)CN1CC1CCOCC1 (stereo not shown) [Compound A81]
[1]
  EC50: 125 to 250 nM

## O=C1c2c(O)c(=O)ccn2N(C23c4ccccc4CC2Cc2c3ccc(F)c2F)CN1CC1CC1 (stereo not shown) [Compound A9, 3-Cyclopropylmethyl-1-(1,2-difluoro-9a,10-dihydro-9H-indeno[1,2-a]inden-4b-yl)-5-hydroxy-2,3-dihydro-1H-pyrido[2,1-f][1,2,4]triazine-4,6-dione]
[1]
  EC50: > 500 nM

## COCCN1C(=O)c2c(O)c(=O)ccn2N(C23c4ccccc4CC2Cc2c3ccc(F)c2F)C1C (stereo not shown) [Compound A113]
[1]
  EC50: 125 to 250 nM

## CCOC12Cc3ccccc3C1(N1CN(C)C(=O)c3c(O)c(=O)ccn31)c1ccccc1C2 (stereo not shown) [Compound A57]
[1]
  EC50: < 125 nM

## CCN1C(=O)c2c(O)c(=O)ccn2N(C23c4ccccc4CC2Cc2c(Cl)cccc23)C1C (stereo not shown) [Compound A95]
[1]
  EC50: 125 to 250 nM

## O=C1c2c(O)c(=O)ccn2N(C23c4cccc(F)c4CC2Cc2c(F)cccc23)CN1CCF (stereo not shown) [Compound A58]
[1]
  EC50: < 125 nM

## CCN1CN(C23c4cccc(F)c4CC2Cc2c(F)cccc23)n2ccc(=O)c(O)c2C1=O (stereo not shown) [Compound A34]
[1]
  EC50: < 125 nM

## CC1N(CC2CC2)C(=O)c2c(O)c(=O)ccn2N1C12c3ccccc3CC1Cc1c(Cl)cccc12 (stereo not shown) [Compound A140]
[1]
  EC50: 250 to 375 nM

## O=C1c2c(O)c(=O)ccn2N(C23c4ccccc4CC2Cc2c(Cl)cccc23)CN1CCF (stereo not shown) [Compound A114]
Influenza A (H1N1)
  EC50: 125 to 250 nM

## CCCN1C(=O)c2c(O)c(=O)ccn2N(C23c4ccccc4CC2Cc2c(Cl)cccc23)C1C (stereo not shown) [Compound A132]
[1]
  EC50: 250 to 375 nM

## CN1CN(C23c4cc(F)ccc4CC2Cc2ccc(F)cc23)n2ccc(=O)c(O)c2C1=O (stereo not shown) [Compound A20, 1-(3,6-difluoro-9a,10-dihydroindeno[1,2-a]inden-4b(9H)-yl)-5-hydroxy-3-methyl-2,3-dihydro-1H-pyrido[2,1-f][1,2,4]triazine-4,6-dione]
[1]
  EC50: < 125 nM

## Cc1cccc2c1CC1Cc3c(F)cccc3C21N1CN(C)C(=O)c2c(O)c(=O)ccn21 (stereo not shown) [Compound A67]
[1]
  EC50: < 125 nM

## CCN1CN(C23c4ccccc4CC2Cc2c3ccc(F)c2C)n2ccc(=O)c(O)c2C1=O (stereo not shown) [Compound A77]
[1]
  EC50: < 125 nM

## CN1CN(C23c4ccccc4CC2Cc2c3ccc(F)c2Cl)n2ccc(=O)c(O)c2C1=O (stereo not shown) [Compound A90]
Influenza A (H1N1)
  EC50: 125 to 250 nM

## CN1CN(C23c4cc(F)c(F)cc4CC2Cc2cc(F)c(F)cc23)n2ccc(=O)c(O)c2C1=O (stereo not shown) [Compound A8, 5-Hydroxy-3-methyl-1-(2,3,6,7-tetrafluoro-9a,10-dihydro-9H-indeno[1,2-a]inden-4b-yl)-2,3-dihydro-1H-pyrido[2,1-f][1,2,4]triazine-4,6-dione]
[1]
  EC50: 375 to 500 nM

## O=C1c2c(O)c(=O)ccn2N(C23c4cccc(F)c4CC2Cc2c(F)cccc23)CN1CCCF (stereo not shown) [Compound A72]
[1]
  EC50: < 125 nM

## O=C1c2c(O)c(=O)ccn2N(C23c4ccccc4CC2Cc2cc(F)c(F)cc23)CN1CCc1ccc(F)cc1 (stereo not shown) [Compound A29, 1-(2,3-difluoro-9a,10-dihydroindeno[1,2-a]inden-4b(9H)-yl)-3-(4-fluorophenethyl)-5-hydroxy-2,3-dihydro-1H-pyrido[2,1-f][1,2,4]triazine-4,6-dione]
[1]
  EC50: 125 to 250 nM

## CC(C)N1CN(C23c4cccc(F)c4CC2(C)Cc2c(F)cccc23)n2ccc(=O)c(O)c2C1=O (stereo not shown) [Compound A89]
[1]
  EC50: 125 to 250 nM

## Cc1cc(CN2CN(C34c5ccccc5CC3Cc3ccccc34)n3ccc(=O)c(O)c3C2=O)no1 (stereo not shown) [Compound A144]
[1]
  EC50: < 125 nM
